Data reported in US20260216207A1, “7-CARBONYLSTAUROSPORINE DERIVATIVE, PREPARATION METHOD THEREFOR, AND USE THEREOF” (HANGZHOU KEXING BIOCHEM. CO., LTD., priority 2023, published 2026).
pIC50: −log10 of the molar value. Entries after “also recorded” stand apart in the source; their conditions may differ.

How the values were obtained:
Type in all cases: biochemical
[1] = target: PIM-1 kinase (Homo sapiens, UniProt P11309); experiment: HTRF KinEASE kinase assay, PIM-1 inhibitory activity
Excerpt: Inhibitory activities against PIM-1, TRKA, TRKB, FLT3, PKCδ, PKCε, PKCη, PAK4, PLK1, ROCK2, and IKKβ kinases were all determined using an HTRF®KinEASE™ kinase assay kit based on a time-resolved fluorescence technology. 7-carbonylstaurosporine (7OSTA) and TP-3654 were used as positive controls, and 3 duplicate wells were set in parallel. Specific operation steps are as follows. • (1) A kinase buffer was formulated and then used to formulate compounds to be tested, a positive drug, a substrate, kinases, and adenosine triphosphate (ATP). • (2) 2 μL of the substrate, 2 μL of the kinases (the kinases were not added in a negative control group), 4 μL of the compounds to be tested or the positive drug (4 μL of a buffer was added in a positive control group, and 6 μL of a buffer was added in the negative control group), and 2 μL of the ATP were sequentially added into each well of a 384-well microplate, and the microplate was sealed with a membrane and then centrifuged for uniform mixing. • (3) According to different types of the kinases, incubation was performed in an incubator at 37° C. for a specific time. • (4) A detection solution was formulated using XL-665, an antibody, and a detection buffer, 10 µL of the detection solution was added into each well, the microplate was sealed with a membrane and then centrifuged for uniform mixing, and standing was performed at room temperature for 1 hour. • (5) Fluorescence value intensities F1 and F2 at wavelengths of 620 nm and 665 nm were measured using a multifunctional microplate tester, respectively. A signal ratio was calculated as F2/F1×10000, and then an IC50 value was calculated using Graphpad Prism 8 software.

[2] = target: T1, FLT3 (Homo sapiens, UniProt P36888); experiment: HTRF KinEASE kinase assay, FLT3 (kinase selectivity); conditions: HTRF KinEASE kit, 3 duplicate wells; read-out: FLT3 IC50
T1 sequence (P36888 27-993): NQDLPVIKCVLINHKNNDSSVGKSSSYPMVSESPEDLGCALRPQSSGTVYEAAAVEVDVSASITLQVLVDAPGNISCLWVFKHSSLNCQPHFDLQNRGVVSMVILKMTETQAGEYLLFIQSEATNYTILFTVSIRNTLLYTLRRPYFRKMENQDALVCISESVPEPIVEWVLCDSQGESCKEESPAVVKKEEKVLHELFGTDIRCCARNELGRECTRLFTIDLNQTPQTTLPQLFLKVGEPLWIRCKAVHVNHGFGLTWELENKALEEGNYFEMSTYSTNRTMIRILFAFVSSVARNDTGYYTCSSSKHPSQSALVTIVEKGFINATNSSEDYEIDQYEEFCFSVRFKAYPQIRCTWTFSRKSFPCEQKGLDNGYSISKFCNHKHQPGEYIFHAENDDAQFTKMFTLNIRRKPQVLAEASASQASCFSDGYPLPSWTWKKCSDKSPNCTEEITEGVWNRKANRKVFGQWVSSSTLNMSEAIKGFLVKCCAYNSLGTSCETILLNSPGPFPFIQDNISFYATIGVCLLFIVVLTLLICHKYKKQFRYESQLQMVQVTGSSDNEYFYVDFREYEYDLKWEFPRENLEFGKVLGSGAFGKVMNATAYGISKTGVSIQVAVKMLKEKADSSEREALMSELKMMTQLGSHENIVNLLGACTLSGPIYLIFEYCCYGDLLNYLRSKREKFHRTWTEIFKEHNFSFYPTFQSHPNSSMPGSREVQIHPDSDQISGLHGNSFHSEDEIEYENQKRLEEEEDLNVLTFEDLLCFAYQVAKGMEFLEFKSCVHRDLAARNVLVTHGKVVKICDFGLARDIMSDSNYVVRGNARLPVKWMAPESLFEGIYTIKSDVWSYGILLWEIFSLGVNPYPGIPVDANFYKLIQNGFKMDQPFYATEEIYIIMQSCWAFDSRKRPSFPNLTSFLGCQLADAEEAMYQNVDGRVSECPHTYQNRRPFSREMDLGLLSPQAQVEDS
Protocol: (§1) Inhibitory activities against PIM-1, TRKA, TRKB, FLT3, PKCδ, PKCε, PKCη, PAK4, PLK1, ROCK2, and IKKβ kinases were all determined using an HTRF®KinEASE™ kinase assay kit based on a time-resolved fluorescence technology. 7-carbonylstaurosporine (7OSTA) and TP-3654 were used as positive controls, and 3 duplicate wells were set in parallel. […] A signal ratio was calculated as F2/F1×10000, and then an IC50 value was calculated using Graphpad Prism 8 software.

[3] = target: PKCδ (Homo sapiens, UniProt Q05655); experiment: HTRF KinEASE kinase assay, PKCδ (kinase selectivity); conditions: HTRF KinEASE kit, 3 duplicate wells; read-out: PKCδ IC50
Protocol: as §1

[4] = target: TRKB (Homo sapiens, UniProt Q16620); experiment: HTRF KinEASE kinase assay, TRKB (kinase selectivity); conditions: HTRF KinEASE kit, 3 duplicate wells; read-out: TRKB IC50
Protocol: as §1

[5] = target: T2, PKCε (Homo sapiens, UniProt Q02156); experiment: HTRF KinEASE kinase assay, PKCε (kinase selectivity); conditions: HTRF KinEASE kit, 3 duplicate wells; read-out: PKCε IC50
T2 sequence (Q02156 1-737): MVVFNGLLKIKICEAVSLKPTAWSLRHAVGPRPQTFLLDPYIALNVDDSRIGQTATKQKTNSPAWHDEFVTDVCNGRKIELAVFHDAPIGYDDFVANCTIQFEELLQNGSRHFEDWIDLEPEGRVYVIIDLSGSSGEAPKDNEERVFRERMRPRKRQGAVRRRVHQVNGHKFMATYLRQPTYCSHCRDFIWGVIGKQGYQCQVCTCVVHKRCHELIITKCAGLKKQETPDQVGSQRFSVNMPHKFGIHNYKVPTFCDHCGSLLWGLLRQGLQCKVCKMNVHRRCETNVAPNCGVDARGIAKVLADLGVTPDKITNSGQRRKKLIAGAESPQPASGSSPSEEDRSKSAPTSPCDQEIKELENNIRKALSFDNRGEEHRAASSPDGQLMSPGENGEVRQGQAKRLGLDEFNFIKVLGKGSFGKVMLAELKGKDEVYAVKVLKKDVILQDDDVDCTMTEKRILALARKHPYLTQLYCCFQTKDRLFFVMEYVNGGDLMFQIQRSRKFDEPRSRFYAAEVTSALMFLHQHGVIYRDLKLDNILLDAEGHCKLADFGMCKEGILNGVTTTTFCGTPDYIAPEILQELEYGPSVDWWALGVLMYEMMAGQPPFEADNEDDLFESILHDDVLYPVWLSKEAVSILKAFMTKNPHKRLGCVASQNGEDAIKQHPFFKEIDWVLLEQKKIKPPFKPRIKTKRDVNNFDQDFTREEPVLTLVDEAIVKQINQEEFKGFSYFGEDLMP
Protocol: as §1

[6] = target: PAK4 (Homo sapiens, UniProt O96013); experiment: HTRF KinEASE kinase assay, PAK4 (kinase selectivity); conditions: HTRF KinEASE kit, 3 duplicate wells; read-out: PAK4 IC50
Protocol: as §1

[7] = target: PLK1 (Homo sapiens, UniProt P53350); experiment: HTRF KinEASE kinase assay, PLK1 (kinase selectivity); conditions: HTRF KinEASE kit, 3 duplicate wells; read-out: PLK1 IC50
Protocol: as §1

Chain of PIM-1 kinase (P11309 whole entry): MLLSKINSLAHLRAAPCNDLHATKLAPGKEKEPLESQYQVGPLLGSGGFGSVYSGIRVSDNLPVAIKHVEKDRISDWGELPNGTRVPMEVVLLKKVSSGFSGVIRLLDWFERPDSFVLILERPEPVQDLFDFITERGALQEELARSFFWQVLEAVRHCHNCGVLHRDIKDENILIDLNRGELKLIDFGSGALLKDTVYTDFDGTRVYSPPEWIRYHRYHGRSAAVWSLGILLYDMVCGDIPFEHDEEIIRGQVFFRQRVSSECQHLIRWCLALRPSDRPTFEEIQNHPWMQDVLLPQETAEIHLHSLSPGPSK
Chain of PAK4 (O96013 whole entry, species assumed): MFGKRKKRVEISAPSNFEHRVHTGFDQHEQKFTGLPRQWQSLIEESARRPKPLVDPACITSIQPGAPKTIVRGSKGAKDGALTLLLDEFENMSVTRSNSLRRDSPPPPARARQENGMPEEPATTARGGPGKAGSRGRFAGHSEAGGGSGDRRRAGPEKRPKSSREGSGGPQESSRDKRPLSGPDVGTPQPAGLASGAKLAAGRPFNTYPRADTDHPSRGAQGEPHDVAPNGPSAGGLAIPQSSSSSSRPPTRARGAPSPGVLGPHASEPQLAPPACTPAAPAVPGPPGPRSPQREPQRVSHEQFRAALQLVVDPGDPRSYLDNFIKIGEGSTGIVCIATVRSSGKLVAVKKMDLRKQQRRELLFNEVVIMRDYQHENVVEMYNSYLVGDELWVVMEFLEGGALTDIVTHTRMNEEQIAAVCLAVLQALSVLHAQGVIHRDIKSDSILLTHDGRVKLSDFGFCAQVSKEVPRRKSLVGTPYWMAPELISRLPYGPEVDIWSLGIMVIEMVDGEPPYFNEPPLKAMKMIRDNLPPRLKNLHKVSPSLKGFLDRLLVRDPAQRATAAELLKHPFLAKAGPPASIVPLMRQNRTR
Chain of PKCδ (Q05655 whole entry): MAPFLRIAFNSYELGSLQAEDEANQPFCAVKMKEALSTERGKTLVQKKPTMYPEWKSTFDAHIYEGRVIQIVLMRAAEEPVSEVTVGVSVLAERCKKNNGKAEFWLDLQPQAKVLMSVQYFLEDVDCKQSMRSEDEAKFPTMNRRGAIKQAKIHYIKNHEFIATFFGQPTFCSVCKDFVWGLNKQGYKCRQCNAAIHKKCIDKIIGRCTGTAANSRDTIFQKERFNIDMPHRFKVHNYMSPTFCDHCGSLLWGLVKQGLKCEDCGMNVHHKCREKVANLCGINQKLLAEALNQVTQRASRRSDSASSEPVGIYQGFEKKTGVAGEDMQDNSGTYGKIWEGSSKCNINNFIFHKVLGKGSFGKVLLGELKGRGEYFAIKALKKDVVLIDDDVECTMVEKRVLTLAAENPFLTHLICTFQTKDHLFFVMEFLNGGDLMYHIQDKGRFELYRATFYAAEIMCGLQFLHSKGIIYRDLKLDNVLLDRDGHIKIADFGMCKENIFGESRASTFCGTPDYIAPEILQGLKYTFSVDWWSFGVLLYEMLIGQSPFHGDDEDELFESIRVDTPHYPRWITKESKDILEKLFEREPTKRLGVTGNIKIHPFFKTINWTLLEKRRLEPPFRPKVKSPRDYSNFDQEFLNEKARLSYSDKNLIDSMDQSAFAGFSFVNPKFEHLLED
Chain of PLK1 (P53350 whole entry, species assumed): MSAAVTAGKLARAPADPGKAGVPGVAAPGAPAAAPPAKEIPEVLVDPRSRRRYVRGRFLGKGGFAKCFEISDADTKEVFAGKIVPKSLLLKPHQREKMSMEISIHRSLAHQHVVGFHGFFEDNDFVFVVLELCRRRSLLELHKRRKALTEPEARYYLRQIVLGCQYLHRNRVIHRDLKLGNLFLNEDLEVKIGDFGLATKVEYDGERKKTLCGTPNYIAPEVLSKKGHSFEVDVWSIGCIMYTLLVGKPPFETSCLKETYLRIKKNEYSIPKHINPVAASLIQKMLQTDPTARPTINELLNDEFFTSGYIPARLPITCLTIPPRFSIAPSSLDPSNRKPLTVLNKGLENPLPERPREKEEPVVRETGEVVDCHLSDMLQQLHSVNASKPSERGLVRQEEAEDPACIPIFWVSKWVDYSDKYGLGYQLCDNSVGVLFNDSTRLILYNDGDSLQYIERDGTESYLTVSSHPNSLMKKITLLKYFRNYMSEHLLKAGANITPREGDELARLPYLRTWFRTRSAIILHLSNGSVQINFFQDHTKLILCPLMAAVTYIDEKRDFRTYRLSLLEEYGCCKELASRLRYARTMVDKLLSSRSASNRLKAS
Chain of TRKB (Q16620 32-822, species assumed): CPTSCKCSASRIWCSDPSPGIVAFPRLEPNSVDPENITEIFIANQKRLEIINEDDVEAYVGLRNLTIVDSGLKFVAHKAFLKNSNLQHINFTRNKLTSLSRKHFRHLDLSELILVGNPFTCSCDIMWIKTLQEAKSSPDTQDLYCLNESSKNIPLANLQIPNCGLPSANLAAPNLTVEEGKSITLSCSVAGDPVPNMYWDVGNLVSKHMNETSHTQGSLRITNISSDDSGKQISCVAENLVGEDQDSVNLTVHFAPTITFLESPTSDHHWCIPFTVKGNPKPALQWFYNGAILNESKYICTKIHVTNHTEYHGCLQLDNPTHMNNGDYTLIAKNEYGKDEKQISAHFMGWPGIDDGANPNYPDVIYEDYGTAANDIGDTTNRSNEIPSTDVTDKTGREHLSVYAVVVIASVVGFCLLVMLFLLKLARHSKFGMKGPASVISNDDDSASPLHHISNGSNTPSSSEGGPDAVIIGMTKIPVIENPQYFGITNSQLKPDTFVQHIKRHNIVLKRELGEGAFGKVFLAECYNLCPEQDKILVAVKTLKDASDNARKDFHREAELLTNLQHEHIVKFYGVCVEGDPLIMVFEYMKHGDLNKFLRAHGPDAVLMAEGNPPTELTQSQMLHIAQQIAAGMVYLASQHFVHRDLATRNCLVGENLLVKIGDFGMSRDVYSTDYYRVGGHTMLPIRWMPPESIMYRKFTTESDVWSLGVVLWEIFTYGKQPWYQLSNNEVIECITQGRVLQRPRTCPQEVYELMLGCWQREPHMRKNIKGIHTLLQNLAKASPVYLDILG

- pIC50 ([1]; HTRF KinEASE kit, 3 duplicate wells, read-out: PIM-1 kinase inhibitory activity (IC50)): 8.23
- pIC50 [2]: 8.28
- pIC50 [3]: 7.98
- pIC50 [4]: 7.87
- pIC50 [5]: 7.16
- pIC50 [6]: 6.62
- pIC50 [7]: 6.38
Structure (SMILES): CO[C@@H]1[C@H](N(C)C(=O)CCC(=O)NO)C[C@H]2O[C@]1(C)n1c3ccccc3c3c4c(c5c6ccccc6n2c5c31)C(=O)NC4=O [Compound 17]
- selectivity for the PIM-1 kinase (in words) ([1]; versus TRKA, TRKB, FLT3, PKCδ, PKCε, PKCη, PAK4, PLK1, ROCK2, IKKβ): excellent selective inhibitory effect on the PIM-1 kinase; also recorded: excellent selective inhibition ability against the PIM-1 kinase
